The record followed here is patent US20260048047A1, “SMALL-MOLECULE ACTIVATORS OF MYCOBACTERIUM TUBERCULOSIS ADENYLYL CYCLASE” (priority 2022, published 2026).

This assay has as its system M. tuberculosis. Briefly: Extracellular activity against M. tuberculosis in cholesterol media (Alamar Blue reduction assay). It is filed as cell-based, Mycobacterium tuberculosis. The note with it: Mycobacterium tuberculosis, 240 h, 7H12-Cholesterol media, 10 days; read-out: Cholesterol broth: alamar blue--EC50. (In general: The colour change of resazurin is a common sign of viable cells or microbes.)

Usually EC50 stands for the concentration needed to bring the measured effect to its halfway point. For the molecule `Cc1nonc1CC(=O)N1CCC(c2nc(-c3ccc(F)cc3F)no2)CC1` [Compound 122, 1-(4-(3-(2,4-difluorophenyl)-1,2,4-oxadiazol-5-yl)piperidin-1-yl)-2-(4-methyl-1,2,5-oxadiazol-3-yl)ethan-1-one], the EC50 worked out at 0.39 µM.

Consider `Cc1nonc1CC(=O)N1CCC(c2nc(-c3ccc(F)cc3C(F)(F)F)no2)CC1` [Compound 123], for which the EC50 turned out to be 1.48 µM.

With `Cc1nonc1CC(=O)N1CCC(c2nc(-c3ccc(F)c(C(F)(F)F)c3)no2)CC1` [Compound 124], the EC50 came to 0.334 µM.

With `Cc1nonc1CC(=O)N1CCC(c2nc(-c3ccc(F)c(OC(F)(F)F)c3)no2)CC1` [Compound 125], the EC50 was 0.288 µM.

Take `Cc1nonc1CC(=O)N1CCC(n2ccc(-c3ccc(F)cc3)n2)CC1` [Compound 127, 1-(4-(3-(4-fluorophenyl)-1H-pyrazol-1-yl)piperidin-1-yl)-2-(4-methyl-1,2,5-oxadiazol-3-yl)ethan-1-one]: the EC50 is 2.97 µM.

For `Cc1nonc1CC(=O)N1CCC(n2cc(-c3ccc(F)cc3)nn2)CC1` [Compound 128, 1-(4-(4-(4-fluorophenyl)-1H-1,2,3-triazol-1-yl)piperidin-1-yl)-2-(4-methyl-1,2,5-oxadiazol-3-yl)ethan-1-one], the EC50 was above 10 µM.

For `Cc1nonc1CC(=O)N1CCC(c2nnc(-c3ccc(F)cc3)o2)CC1` [Compound 129, 1-(4-(5-(4-fluorophenyl)-1,3,4-oxadiazol-2-yl)piperidin-1-yl)-2-(4-methyl-1,2,5-oxadiazol-3-yl)ethan-1-one], the EC50 is above 10 µM.

In the case of `Cc1nonc1CC(=O)N1CCC(c2nc(-c3ccc(F)cc3)no2)CC1` [Compound 130, 1-(4-(3-(4-fluorophenyl)-1,2,4-oxadiazol-5-yl)piperidin-1-yl)-2-(4-methyl-1,2,5-oxadiazol-3-yl)ethan-1-one], the EC50 came to 0.275 µM.

For the molecule `Cc1nonc1CC(=O)N1CCC(c2noc(-c3ccc(F)cc3)n2)CC1` [Compound 132, 1-(4-(5-(4-fluorophenyl)-1,2,4-oxadiazol-3-yl)piperidin-1-yl)-2-(4-methyl-1,2,5-oxadiazol-3-yl)ethan-1-one], the EC50 is 1.07 µM.

With `Cc1nonc1CC(=O)N1CCC(c2nc(-c3ccc(F)cc3)co2)CC1` [Compound 134, 1-(4-(4-(4-fluorophenyl)oxazol-2-yl)piperidin-1-yl)-2-(4-methyl-1,2,5-oxadiazol-3-yl)ethan-1-one], the EC50 was 1.43 µM.

For `Cc1nonc1CC(=O)N1CCC(c2cc(-c3ccc(F)cc3)no2)CC1` [Compound 135, 1-(4-(3-(4-fluorophenyl)isoxazol-5-yl)piperidin-1-yl)-2-(4-methyl-1,2,5-oxadiazol-3-yl)ethan-1-one], the EC50 was 1.58 µM.

With `Cc1nonc1CC(=O)N1CCC(C)(c2nc(-c3ccc(F)cc3)no2)CC1` [Compound 138, 1-(4-(3-(4-fluorophenyl)-1,2,4-oxadiazol-5-yl)-4-methylpiperidin-1-yl)-2-(4-methyl-1,2,5-oxadiazol-3-yl)ethan-1-one], the EC50 was 1.47 µM.

With `Cc1nonc1CC(=O)N1CCC(c2nc(-c3ccc(F)cc3)no2)(C(F)(F)F)CC1` [Compound 139, 1-(4-(3-(4-fluorophenyl)-1,2,4-oxadiazol-5-yl)-4-(trifluoromethyl)piperidin-1-yl)-2-(4-methyl-1,2,5-oxadiazol-3-yl)ethan-1-one], the EC50 was above 10 µM.

Turning to `Cc1nonc1CC(=O)N1CCC(O)(c2nc(-c3ccc(F)cc3)no2)CC1` [Compound 140, 1-(4-(3-(4-fluorophenyl)-1,2,4-oxadiazol-5-yl)-4-hydroxypiperidin-1-yl)-2-(4-methyl-1,2,5-oxadiazol-3-yl)ethan-1-one], the concentration for a half-maximal effect (EC50) came out at 0.685 µM.

`Cc1nonc1CC(=O)N1CCC(c2nc(-c3ccc(F)cn3)no2)CC1` [Compound 141, 1-(4-(3-(5-fluoropyridin-2-yl)-1,2,4-oxadiazol-5-yl)piperidin-1-yl)-2-(4-methyl-1,2,5-oxadiazol-3-yl)ethan-1-one]: the EC50 is above 10 µM.

`Cc1nonc1CC(=O)N1CCC(c2nc(Cc3ccc(F)cc3)no2)CC1` [Compound 142, 1-(4-(3-(4-fluorobenzyl)-1,2,4-oxadiazol-5-yl)piperidin-1-yl)-2-(4-methyl-1,2,5-oxadiazol-3-yl)ethan-1-one]: the EC50 stood at 6.64 µM.

As for `Cc1nonc1CC(=O)N1CCC(c2nc(-c3cccc(F)c3F)no2)CC1` [Compound 143, 1-(4-(3-(2,3-difluorophenyl)-1,2,4-oxadiazol-5-yl)piperidin-1-yl)-2-(4-methyl-1,2,5-oxadiazol-3-yl)ethan-1-one], the half-maximal effective concentration (EC50) was 1.2 µM.

Turning to `Cc1nonc1CC(=O)N1CCC(c2nc(-c3cccc(F)c3)no2)CC1` [Compound 144, 1-(4-(3-(3-fluorophenyl)-1,2,4-oxadiazol-5-yl)piperidin-1-yl)-2-(4-methyl-1,2,5-oxadiazol-3-yl)ethan-1-one], the EC50 is 0.59 µM.

Consider `Cc1nonc1CC(=O)N1CCC(n2nnc(-c3cccc(F)c3)n2)CC1` [Compound 145, 1-(4-(5-(3-fluorophenyl)-2H-tetrazol-2-yl)piperidin-1-yl)-2-(4-methyl-1,2,5-oxadiazol-3-yl)ethan-1-one], for which the EC50 worked out at 0.963 µM.

Take `Cc1nonc1CC(=O)N1CCC(c2nc(-c3ccccc3F)no2)CC1` [Compound 146, 1-(4-(3-(2-fluorophenyl)-1,2,4-oxadiazol-5-yl)piperidin-1-yl)-2-(4-methyl-1,2,5-oxadiazol-3-yl)ethan-1-one]: the EC50 was 1.36 µM.

Take `Cc1nonc1CC(=O)N1CCC(n2nnc(-c3ccccc3F)n2)CC1` [Compound 147, 1-(4-(5-(2-fluorophenyl)-2H-tetrazol-2-yl)piperidin-1-yl)-2-(4-methyl-1,2,5-oxadiazol-3-yl)ethan-1-one]: the concentration for a half-maximal effect (EC50) worked out at 1.45 µM.

`Cc1nonc1CC(=O)N1CCC(c2nc(-c3ncc(F)cn3)no2)CC1` [Compound 148, 1-(4-(3-(5-fluoropyrimidin-2-yl)-1,2,4-oxadiazol-5-yl)piperidin-1-yl)-2-(4-methyl-1,2,5-oxadiazol-3-yl)ethan-1-one]: the half-maximal effective concentration (EC50) is above 10 µM.

For `Cc1nonc1CC(=O)N1CCC(n2nnc(-c3ccc(C(N)=O)cc3)n2)CC1` [Compound 149, 4-(2-(1-(2-(4-methyl-1,2,5-oxadiazol-3-yl)acetyl)piperidin-4-yl)-2H-tetrazol-5-yl)benzamide], the EC50 was above 10 µM.

On to `Cc1nonc1CC(=O)N1CCC(n2cc(C(=O)NCCO)nn2)CC1` [Compound 150, N-(2-hydroxyethyl)-1-(1-(2-(4-methyl-1,2,5-oxadiazol-3-yl)acetyl)piperidin-4-yl)-1H-1,2,3-triazole-4-carboxamide], for which the EC50 is above 10 µM.

On to `Cc1nonc1CS(=O)(=O)N1CCC(c2nc(-c3ccc(F)cc3)no2)CC1` [Compound 151, 3-(4-fluorophenyl)-5-(1-(((4-methyl-1,2,5-oxadiazol-3-yl)methyl)sulfonyl)piperidin-4-yl)-1,2,4-oxadiazole], for which the EC50 was above 10 µM.

Turning to `Cc1nonc1NC(=O)N1CCC(c2nc(-c3ccc(F)cc3)no2)CC1` [Compound 152, 4-(3-(4-fluorophenyl)-1,2,4-oxadiazol-5-yl)-N-(4-methyl-1,2,5-oxadiazol-3-yl)piperidine-1-carboxamide], the EC50 is 0.653 µM.
